In ChEMBL document CHEMBL3862012, “Methylene versus carbonyl bridge in the structure of new tubulin polymerization inhibitors with tricyclic A-rings” (Bioorg Med Chem, 2016):

Experiments:
Ovis aries = species: Ovis aries; test: Inhibition of sheep brain tubulin polymerization at 100 uM by DAPI staining-based fluorimetric method relative to control
[1] = Cytotoxicity against human HL-60(TB) cells assessed as growth inhibition at 10 uM after 48 hrs by SRB assay relative to control; assay type: functional; conditions: HL-60, 48 h, read-out: GI
[2] = Cytotoxicity against human MOLT4 cells assessed as growth inhibition at 10 uM after 48 hrs by SRB assay relative to control; assay type: functional; conditions: MOLT-4, 48 h, read-out: GI
[3] = Cytotoxicity against human RPMI8226 cells assessed as growth inhibition at 10 uM after 48 hrs by SRB assay relative to control; assay type: functional; conditions: RPMI-8226, 48 h, read-out: GI
[4] = Cytotoxicity against human SR cells assessed as growth inhibition at 10 uM after 48 hrs by SRB assay relative to control; assay type: functional; conditions: read-out: GI
[5] = Cytotoxicity against human A549 cells assessed as growth inhibition at 10 uM after 48 hrs by SRB assay relative to control; assay type: functional; conditions: A549, 48 h, read-out: GI
[6] = Cytotoxicity against human EKVX cells assessed as growth inhibition at 10 uM after 48 hrs by SRB assay relative to control; assay type: functional; conditions: read-out: GI
[7] = Cytotoxicity against human HOP62 cells assessed as growth inhibition at 10 uM after 48 hrs by SRB assay relative to control; assay type: functional; conditions: HOP-62, 48 h, read-out: GI
[8] = Cytotoxicity against human HOP92 cells assessed as growth inhibition at 10 uM after 48 hrs by SRB assay relative to control; assay type: functional; conditions: HOP-92, 48 h, read-out: GI
[9] = Cytotoxicity against human NCI-H226 cells assessed as growth inhibition at 10 uM after 48 hrs by SRB assay relative to control; assay type: functional; conditions: NCI-H226, 48 h, read-out: GI
[10] = Cytotoxicity against human NCI-H322M cells assessed as growth inhibition at 10 uM after 48 hrs by SRB assay relative to control; assay type: functional; conditions: read-out: GI
[11] = Cytotoxicity against human NCI-H460 cells assessed as growth inhibition at 10 uM after 48 hrs by SRB assay relative to control; assay type: functional; conditions: NCI-H460, 48 h, read-out: GI
[12] = Cytotoxicity against human NCI-H522 cells assessed as growth inhibition at 10 uM after 48 hrs by SRB assay relative to control; assay type: functional; conditions: NCI-H522, 48 h, read-out: GI
[13] = Cytotoxicity against human COLO205 cells assessed as growth inhibition at 10 uM after 48 hrs by SRB assay relative to control; assay type: functional; conditions: COLO 205, 48 h, read-out: GI
[14] = Cytotoxicity against human HCT15 cells assessed as growth inhibition at 10 uM after 48 hrs by SRB assay relative to control; assay type: functional; conditions: HCT-15, 48 h, read-out: GI
[15] = Cytotoxicity against human HT-29 cells assessed as growth inhibition at 10 uM after 48 hrs by SRB assay relative to control; assay type: functional; conditions: HT-29, 48 h, read-out: GI
[16] = Cytotoxicity against human SW620 cells assessed as growth inhibition at 10 uM after 48 hrs by SRB assay relative to control; assay type: functional; conditions: SW-620, 48 h, read-out: GI
[17] = Cytotoxicity against human SF295 cells assessed as growth inhibition at 10 uM after 48 hrs by SRB assay relative to control; assay type: functional; conditions: SF-295, 48 h, read-out: GI
[18] = Cytotoxicity against human SNB19 cells assessed as growth inhibition at 10 uM after 48 hrs by SRB assay relative to control; assay type: functional; conditions: SNB-19, 48 h, read-out: GI
[19] = Cytotoxicity against human LOXIMVI cells assessed as growth inhibition at 10 uM after 48 hrs by SRB assay relative to control; assay type: functional; conditions: LOX IMVI, read-out: GI
[20] = Cytotoxicity against human MALME-3M cells assessed as growth inhibition at 10 uM after 48 hrs by SRB assay relative to control; assay type: functional; conditions: read-out: GI
[21] = Cytotoxicity against human SK-MEL-2 cells assessed as growth inhibition at 10 uM after 48 hrs by SRB assay relative to control; assay type: functional; conditions: SK-MEL-2, 48 h, read-out: GI
[22] = Cytotoxicity against human UACC257 cells assessed as growth inhibition at 10 uM after 48 hrs by SRB assay relative to control; assay type: functional; conditions: UACC-257, 48 h, read-out: GI
[23] = Cytotoxicity against human IGROV1 cells assessed as growth inhibition at 10 uM after 48 hrs by SRB assay relative to control; assay type: functional; conditions: IGROV-1, 48 h, read-out: GI
[24] = Cytotoxicity against human OVCAR3 cells assessed as growth inhibition at 10 uM after 48 hrs by SRB assay relative to control; assay type: functional; conditions: OVCAR-3, 48 h, read-out: GI
[25] = Cytotoxicity against human OVCAR4 cells assessed as growth inhibition at 10 uM after 48 hrs by SRB assay relative to control; assay type: functional; conditions: OVCAR-4, 48 h, read-out: GI
[26] = Cytotoxicity against human NCI-ADR-RES cells assessed as growth inhibition at 10 uM after 48 hrs by SRB assay relative to control; assay type: functional; conditions: read-out: GI
[27] = Cytotoxicity against human A498 cells assessed as growth inhibition at 10 uM after 48 hrs by SRB assay relative to control; assay type: functional; conditions: A498, 48 h, read-out: GI
[28] = Cytotoxicity against human ACHN cells assessed as growth inhibition at 10 uM after 48 hrs by SRB assay relative to control; assay type: functional; conditions: read-out: GI
[29] = Cytotoxicity against human RXF393 cells assessed as growth inhibition at 10 uM after 48 hrs by SRB assay relative to control; assay type: functional; conditions: RXF 393, 48 h, read-out: GI
[30] = Cytotoxicity against human TK10 cells assessed as growth inhibition at 10 uM after 48 hrs by SRB assay relative to control; assay type: functional; conditions: TK-10, 48 h, read-out: GI
[31] = Cytotoxicity against human UO31 cells assessed as growth inhibition at 10 uM after 48 hrs by SRB assay relative to control; assay type: functional; conditions: UO-31, 48 h, read-out: GI
[32] = Cytotoxicity against human PC3 cells assessed as growth inhibition at 10 uM after 48 hrs by SRB assay relative to control; assay type: functional; conditions: PC-3, 48 h, read-out: GI
[33] = Cytotoxicity against human DU145 cells assessed as growth inhibition at 10 uM after 48 hrs by SRB assay relative to control; assay type: functional; conditions: DU-145, 48 h, read-out: GI
[34] = Cytotoxicity against human MDA-MB-231 cells assessed as growth inhibition at 10 uM after 48 hrs by SRB assay relative to control; assay type: functional; conditions: MDA-MB-231, 48 h, read-out: GI
[35] = Cytotoxicity against human Hs 578T cells assessed as growth inhibition at 10 uM after 48 hrs by SRB assay relative to control; assay type: functional; conditions: read-out: GI
[36] = Cytotoxicity against human MDA-MB-468 cells assessed as growth inhibition at 10 uM after 48 hrs by SRB assay relative to control; assay type: functional; conditions: MDA-MB-468, 48 h, read-out: GI

| Compound | inhibition (Ovis aries) [%] | inhibition of growth at 10 µM [1] [%] | inhibition of growth at 10 µM [2] [%] | inhibition of growth at 10 µM [3] [%] | inhibition of growth at 10 µM [4] [%] | inhibition of growth at 10 µM [5] [%] | inhibition of growth at 10 µM [6] [%] | inhibition of growth at 10 µM [7] [%] | inhibition of growth at 10 µM [8] [%] | inhibition of growth at 10 µM [9] [%] | inhibition of growth at 10 µM [10] [%] | inhibition of growth at 10 µM [11] [%] | inhibition of growth at 10 µM [12] [%] | inhibition of growth at 10 µM [13] [%] | inhibition of growth at 10 µM [14] [%] | inhibition of growth at 10 µM [15] [%] | inhibition of growth at 10 µM [16] [%] | inhibition of growth at 10 µM [17] [%] | inhibition of growth at 10 µM [18] [%] | inhibition of growth at 10 µM [19] [%] | also measured |
| --- | --- | --- | --- | --- | --- | --- | --- | --- | --- | --- | --- | --- | --- | --- | --- | --- | --- | --- | --- | --- | --- |
| COc1ccc(CN2c3ccccc3Sc3ccccc32)c(F)c1 | 7 | 100 | 77 | 88 | 88 | 66 | 49 | 73 | 67 | 44 | 55 | 89 | 100 | 88 | 65 | 96 | 90 | 92 | 59 | 47 | inhibition of growth at 10 µM [20]: 43%; inhibition of growth at 10 µM [21]: 70%; inhibition of growth at 10 µM [22]: 48%; inhibition of growth at 10 µM [23]: 50%; inhibition of growth at 10 µM [24]: 100%; inhibition of growth at 10 µM [25]: 38%; inhibition of growth at 10 µM [26]: 78%; inhibition of growth at 10 µM [27]: 100%; inhibition of growth at 10 µM [28]: 57%; inhibition of growth at 10 µM [29]: 99%; inhibition of growth at 10 µM [30]: 49%; inhibition of growth at 10 µM [31]: 57%; inhibition of growth at 10 µM [32]: 70%; inhibition of growth at 10 µM [33]: 79%; inhibition of growth at 10 µM [34]: 40%; inhibition of growth at 10 µM [35]: 78%; inhibition of growth at 10 µM [36]: 98% |
| COc1ccc(CN2c3ccccc3Sc3ccccc32)c(C(F)(F)F)c1 | 15 | 76 | 76 | 71 | 88 | 67 | 50 | 59 | 61 | 42 | 51 | 90 | 100 | 100 | 63 | 98 | 74 | 98 | 67 | 45 | inhibition of growth at 10 µM [20]: 7%; inhibition of growth at 10 µM [21]: 96%; inhibition of growth at 10 µM [22]: 46%; inhibition of growth at 10 µM [23]: 57%; inhibition of growth at 10 µM [24]: 94%; inhibition of growth at 10 µM [25]: 56%; inhibition of growth at 10 µM [26]: 77%; inhibition of growth at 10 µM [27]: 96%; inhibition of growth at 10 µM [28]: 51%; inhibition of growth at 10 µM [29]: 100%; inhibition of growth at 10 µM [30]: 34%; inhibition of growth at 10 µM [31]: 54%; inhibition of growth at 10 µM [32]: 73%; inhibition of growth at 10 µM [33]: 79%; inhibition of growth at 10 µM [34]: 59%; inhibition of growth at 10 µM [35]: 77%; inhibition of growth at 10 µM [36]: 81% |
| COc1ccc(CN2c3ccccc3Sc3ccccc32)cc1F | 63 | 100 | 73 | 79 | 83 | 78 | 66 | 80 | 50 | 44 | 57 | 95 | 95 | 100 | 84 | 100 | 76 | 88 | 65 | 60 | inhibition of growth at 10 µM [20]: 67%; inhibition of growth at 10 µM [21]: 60%; inhibition of growth at 10 µM [22]: 45%; inhibition of growth at 10 µM [23]: 64%; inhibition of growth at 10 µM [24]: 100%; inhibition of growth at 10 µM [25]: 51%; inhibition of growth at 10 µM [26]: 97%; inhibition of growth at 10 µM [27]: 100%; inhibition of growth at 10 µM [28]: 58%; inhibition of growth at 10 µM [29]: 83%; inhibition of growth at 10 µM [30]: 53%; inhibition of growth at 10 µM [31]: 54%; inhibition of growth at 10 µM [32]: 79%; inhibition of growth at 10 µM [33]: 86%; inhibition of growth at 10 µM [34]: 76%; inhibition of growth at 10 µM [35]: 83%; inhibition of growth at 10 µM [36]: 100% |
